Laboratory results published in ChEMBL document CHEMBL2021911 (Bioorg Med Chem Lett, 2012).
Calls of active or inactive are those of the source. The rule behind the calls is not given here.

Assays:
[1] = biological target: T1, Muscarinic acetylcholine receptor M1 (Homo sapiens, UniProt P11229); assay: Agonist activity at human muscarinic M1 receptor; format: functional; details: read-out: EC50
T1 sequence (P11229 whole entry): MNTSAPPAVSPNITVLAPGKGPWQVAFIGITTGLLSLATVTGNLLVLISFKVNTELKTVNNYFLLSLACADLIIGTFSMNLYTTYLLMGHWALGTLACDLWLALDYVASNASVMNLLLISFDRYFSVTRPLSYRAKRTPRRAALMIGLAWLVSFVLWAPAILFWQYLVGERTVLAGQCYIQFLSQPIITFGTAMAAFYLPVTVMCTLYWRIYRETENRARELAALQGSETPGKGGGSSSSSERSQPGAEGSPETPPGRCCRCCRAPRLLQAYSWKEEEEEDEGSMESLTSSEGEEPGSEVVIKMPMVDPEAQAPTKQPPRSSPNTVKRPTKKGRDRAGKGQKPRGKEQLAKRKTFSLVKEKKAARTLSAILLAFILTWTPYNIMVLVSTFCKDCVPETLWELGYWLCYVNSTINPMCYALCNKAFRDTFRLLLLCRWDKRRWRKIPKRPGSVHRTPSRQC

[2] = biological target: T2, Muscarinic acetylcholine receptor M1 (Homo sapiens) (UniProt P11229); assay: Agonist activity at human muscarinic M1 receptor at 30 uM relative to acetylcholine; format: functional
T2 sequence (whole entry): T1 sequence (P11229 whole entry)

[3] = biological target: T2, Muscarinic acetylcholine receptor M1 (Homo sapiens); assay: Agonist activity at human muscarinic M1 receptor expressed in TREx293 cells assessed as increase of soluble APPalpha release at 2 uM; format: functional, cell-based; details: HEK293
[4] = biological target: T1, Muscarinic acetylcholine receptor M1; assay: Agonist activity at human muscarinic M1 receptor by calcium mobilization assay; format: functional
[5] = biological target: T2, Muscarinic acetylcholine receptor M1 (Homo sapiens); assay: Agonist activity at human muscarinic M1 receptor at 30 uM by calcium mobilization assay relative to acetylcholine; format: functional
[6] = biological target: T3, Muscarinic acetylcholine receptor M2 (Homo sapiens, UniProt P08172); assay: Agonist activity at human muscarinic M2 receptor by calcium mobilization assay; format: functional
T3 sequence (P08172 whole entry): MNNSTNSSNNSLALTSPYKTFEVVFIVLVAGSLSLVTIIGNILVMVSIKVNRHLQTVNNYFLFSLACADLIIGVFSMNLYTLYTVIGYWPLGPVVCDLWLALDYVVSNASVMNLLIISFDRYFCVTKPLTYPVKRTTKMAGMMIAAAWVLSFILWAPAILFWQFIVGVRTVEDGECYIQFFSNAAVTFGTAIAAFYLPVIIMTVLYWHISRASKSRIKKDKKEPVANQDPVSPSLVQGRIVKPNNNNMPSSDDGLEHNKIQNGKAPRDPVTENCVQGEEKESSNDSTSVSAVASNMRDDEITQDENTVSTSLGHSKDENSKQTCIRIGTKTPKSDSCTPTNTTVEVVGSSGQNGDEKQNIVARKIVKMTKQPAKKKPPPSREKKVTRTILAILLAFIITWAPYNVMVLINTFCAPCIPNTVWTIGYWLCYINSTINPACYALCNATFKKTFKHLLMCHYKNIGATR

[7] = biological target: T4, Muscarinic acetylcholine receptor M2 (Homo sapiens) (UniProt P08172); assay: Agonist activity at human muscarinic M2 receptor at 30 uM by calcium mobilization assay relative to acetylcholine; format: functional
T4 sequence (whole entry): T3 sequence (P08172 whole entry)

[8] = biological target: T5, Muscarinic acetylcholine receptor M3 (Homo sapiens, UniProt P20309); assay: Agonist activity at human muscarinic M3 receptor by calcium mobilization assay; format: functional
Target sequence in this assay (P20309 whole entry): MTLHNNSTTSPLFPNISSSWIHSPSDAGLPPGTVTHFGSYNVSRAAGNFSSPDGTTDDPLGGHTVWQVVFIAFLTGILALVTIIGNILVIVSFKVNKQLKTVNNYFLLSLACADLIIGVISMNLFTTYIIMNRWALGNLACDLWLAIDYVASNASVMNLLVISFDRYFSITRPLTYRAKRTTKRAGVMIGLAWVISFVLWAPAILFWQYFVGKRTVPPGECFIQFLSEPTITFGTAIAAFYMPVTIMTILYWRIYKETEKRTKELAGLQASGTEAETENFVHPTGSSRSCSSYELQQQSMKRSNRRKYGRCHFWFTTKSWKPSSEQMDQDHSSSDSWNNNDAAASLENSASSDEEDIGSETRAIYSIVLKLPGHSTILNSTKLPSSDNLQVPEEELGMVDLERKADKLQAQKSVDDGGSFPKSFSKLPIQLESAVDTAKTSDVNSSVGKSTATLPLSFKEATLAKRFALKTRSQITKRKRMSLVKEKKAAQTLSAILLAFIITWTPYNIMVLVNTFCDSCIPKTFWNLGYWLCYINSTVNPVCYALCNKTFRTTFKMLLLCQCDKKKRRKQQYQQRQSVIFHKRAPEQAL

[9] = biological target: T6, Muscarinic acetylcholine receptor M4 (Homo sapiens, UniProt P08173); assay: Agonist activity at human muscarinic M4 receptor by calcium mobilization assay; format: functional
T6 sequence (P08173 whole entry): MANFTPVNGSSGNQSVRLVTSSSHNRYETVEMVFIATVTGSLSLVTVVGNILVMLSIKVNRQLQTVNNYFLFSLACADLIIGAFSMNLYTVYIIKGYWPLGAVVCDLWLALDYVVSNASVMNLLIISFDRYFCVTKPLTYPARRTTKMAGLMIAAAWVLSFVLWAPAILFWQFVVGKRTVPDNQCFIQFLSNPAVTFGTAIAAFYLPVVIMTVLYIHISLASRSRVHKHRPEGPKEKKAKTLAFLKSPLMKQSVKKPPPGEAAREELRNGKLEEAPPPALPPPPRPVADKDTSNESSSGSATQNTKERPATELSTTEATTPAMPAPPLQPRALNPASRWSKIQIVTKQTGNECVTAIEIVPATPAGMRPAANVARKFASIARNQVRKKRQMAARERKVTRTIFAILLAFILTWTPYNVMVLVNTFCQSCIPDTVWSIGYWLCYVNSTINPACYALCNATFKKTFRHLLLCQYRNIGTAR

[10] = biological target: T6, Muscarinic acetylcholine receptor M4; assay: Antagonist activity at human muscarinic M4 receptor by calcium mobilization assay; format: functional
[11] = biological target: T7, Muscarinic acetylcholine receptor M5 (Homo sapiens, UniProt P08912); assay: Agonist activity at human muscarinic M5 receptor by calcium mobilization assay; format: functional
T7 sequence (P08912 whole entry): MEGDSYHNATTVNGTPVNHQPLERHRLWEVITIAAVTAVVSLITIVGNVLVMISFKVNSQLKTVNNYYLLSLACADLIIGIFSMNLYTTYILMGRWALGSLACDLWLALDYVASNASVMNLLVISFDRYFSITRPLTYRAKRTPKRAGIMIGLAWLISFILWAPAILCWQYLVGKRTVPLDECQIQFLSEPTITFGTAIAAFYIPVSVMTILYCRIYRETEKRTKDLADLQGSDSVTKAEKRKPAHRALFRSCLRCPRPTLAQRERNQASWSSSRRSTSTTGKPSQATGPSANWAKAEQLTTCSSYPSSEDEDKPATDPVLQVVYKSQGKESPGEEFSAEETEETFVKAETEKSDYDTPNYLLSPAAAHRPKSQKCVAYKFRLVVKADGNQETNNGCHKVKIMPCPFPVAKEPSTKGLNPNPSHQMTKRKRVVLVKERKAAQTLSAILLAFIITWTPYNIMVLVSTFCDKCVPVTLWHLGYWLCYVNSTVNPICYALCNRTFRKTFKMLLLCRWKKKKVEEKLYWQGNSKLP

[12] = biological target: T8, Muscarinic acetylcholine receptor M5 (Homo sapiens) (UniProt P08912); assay: Agonist activity at human muscarinic M5 receptor at 30 uM by calcium mobilization assay relative to acetylcholine; format: functional
T8 sequence (whole entry): T7 sequence (P08912 whole entry)

[13] = biological target: T3, Muscarinic acetylcholine receptor M2; assay: Antagonist activity at human muscarinic M2 receptor by calcium mobilization assay; format: functional
[14] = biological target: T7, Muscarinic acetylcholine receptor M5; assay: Antagonist activity at human muscarinic M5 receptor by calcium mobilization assay; format: functional
[15] = biological target: T4, Muscarinic acetylcholine receptor M2 (Homo sapiens); assay: Antagonist activity at human muscarinic M2 receptor assessed as remaining activity measured as percentage of maximum response generated from 80% of saturating dose of ACh at 30 uM by calcium mobilization assay; format: functional
[16] = biological target: T5, Muscarinic acetylcholine receptor M3; assay: Agonist activity at human muscarinic M3 receptor at 30 uM by calcium mobilization assay relative to acetylcholine; format: functional
Target sequence in this assay (P20309 whole entry, looked up): as the sequence (P20309 whole entry) above

[17] = biological target: T9, Muscarinic acetylcholine receptor M4 (Homo sapiens) (UniProt P08173); assay: Antagonist activity at human muscarinic M4 receptor assessed as remaining activity measured as percentage of maximum response generated from 80% of saturating dose of ACh at 30 uM by calcium mobilization assay; format: functional
T9 sequence (whole entry): T6 sequence (P08173 whole entry)

[18] = biological target: T5, Muscarinic acetylcholine receptor M3; assay: Antagonist activity at human muscarinic M3 receptor by calcium mobilization assay
Target sequence in this assay (P20309 whole entry): as the sequence (P20309 whole entry) above

[19] = biological target: T5, Muscarinic acetylcholine receptor M3; assay: Antagonist activity at human muscarinic M3 receptor assessed as remaining activity measured as percentage of maximum response generated from 80% of saturating dose of ACh at 30 uM by calcium mobilization assay; format: functional
Target sequence in this assay (P20309 whole entry, looked up): as the sequence (P20309 whole entry) above

EC50 [4] | Activity [5] | EC50 ([11]; read-out: EC50) | Activity [12] | Structure (SMILES) | EC50 [1] | Activity [2] | also measured
41 nM | 81% | 1000 nM | 28% | CCCCC1CCN(CCCN2C(=O)COc3cc(F)ccc32)CC1 |  |  | EC50 ([8]; read-out: EC50): 5900 nM; IC50 ([13]; read-out: IC50): > 10000 nM; Activity [15]: 30%; Activity [16]: 19%; IC50 ([10]; read-out: IC50): > 10000 nM; Activity [17]: 26%
96 nM | 58% | 4200 nM | 22% | CCOC(=O)N1C[C@H]2CC[C@@H](C1)[C@H]2NCCNC(=O)c1cccc(Cl)c1 | 47 nM | 52% | EC50 [6]: Not Active; EC50 [8]: Not Active; IC50 [13]: Not Active; IC50 ([10]; read-out: IC50): > 10000 nM; Activity [17]: 40%
 |  |  |  | CCOC(=O)N1CCC(N2CCC[C@@H](NC(=O)c3ccccc3C)C2)CC1 | 890 nM | 71% | 
 |  |  |  | CCOC(=O)N1CC[C@H]2[C@@H](CCCN2CCNC(=O)c2ccccc2)C1 (relative stereo) | 3200 nM | 13% | 
 |  |  |  | COC(=O)N1[C@@H]2CC[C@H]1C[C@H](NCCNC(=O)c1ccccc1)C2 | > 10000 nM | 21% | 
18 nM | 46% | 2800 nM | 31% | CCOC(=O)N1C[C@H]2CC[C@@H](C1)[C@H]2NCCNC(=O)c1ccccc1 | 92 nM | 53% | Activity [3]: Active; EC50 [6]: Not Active; IC50 [13]: Not Active; IC50 [18]: > 10000 nM; Activity [19]: 45%; IC50 ([10]; read-out: IC50): > 10000 nM; Activity [17]: 48%
 |  |  |  | CCOC(=O)N1C[C@H]2CC[C@@H](C1)[C@H]2NCCNC(=O)c1cc(F)cc(F)c1 | 200 nM | 53% | 
 |  |  |  | CCOC(=O)N1[C@@H]2CC[C@H]1C[C@H](NCCNC(=O)c1cccc(Cl)c1)C2 | 440 nM | 63% | 
 |  |  |  | CCOC(=O)N1[C@@H]2CC[C@H]1C[C@H](NCCNC(=O)c1cc(F)cc(F)c1)C2 | 1900 nM | 43% | 
 |  |  |  | CCOC(=O)N1[C@@H]2CC[C@H]1C[C@H](NCCNC(=O)c1ccccc1Cl)C2 | 2300 nM | 37% | 
 |  |  |  | CCOC(=O)N1[C@@H]2CC[C@H]1C[C@H](NCCNC(=O)c1ccccc1C)C2 | 1100 nM | 47% | 

Structure (SMILES) | EC50 [4] | Activity [5] | EC50 ([11]; read-out: EC50) | Activity [12] | EC50 [1] | Activity [2] | also measured
CCOC(=O)N1C2CCC1CC(N1CCC[C@@H](NC(=O)c3ccccc3)C1)C2 (mixture of isomers) | 350 nM | 65% | > 10000 nM | 21% | 840 nM | 75% | Activity [3]: Active; EC50 ([6]; read-out: EC50): > 10000 nM; Activity [7]: 27%; EC50 [8]: Not Active; EC50 [9]: Not Active; IC50 [10]: Not Active
CCOC(=O)N1[C@@H]2CC[C@H]1C[C@H](NCCNC(=O)c1ccccc1)C2 |  | 57% |  |  | 970 nM | 49% | Activity [3]: Active; EC50 [6]: Not Active; EC50 [8]: Not Active; IC50 [13]: Not Active; EC50 [9]: Not Active; IC50 [10]: Not Active; EC50 [11]: Not Active; IC50 [14]: Not Active
